Active and inactive are the calls of the source.
What was measured:
[1] = target: Sphingosine 1-phosphate receptor 1 (Homo sapiens) (UniProt P21453); conditions: CHO, 1 uM
Description: Agonist activity at human S1P1 receptor expressed in CHO cells assessed as inhibition of forskolin-stimulated cAMP formation at 1 uM after 60 mins

[2] = target: Sphingosine 1-phosphate receptor 1 (Homo sapiens) (UniProt P21453); experiment: Induction of human S1P1 receptor internalization expressed in CHO cells pretreated at 1 uM for 1 hr measured after 5 hrs washout period; format: cell-based
[3] = target: Sphingosine 1-phosphate receptor 1 (Homo sapiens) (UniProt P21453); experiment: Induction of human S1P1 receptor internalization expressed in CHO cells at 1 uM after 60 mins; format: cell-based
[4] = target: Sphingosine 1-phosphate receptor 1 (Homo sapiens) (UniProt P21453); conditions: CHO, 1 uM; remark: listed apart in the source
Description: Agonist activity at human S1P1 receptor expressed in CHO cells assessed as inhibition of forskolin-stimulated cAMP formation at 1 uM after 20 mins

[5] = target: Sphingosine 1-phosphate receptor 1 (Homo sapiens) (UniProt P21453); experiment: Agonist activity at human S1P1 receptor expressed in CHO cells assessed as inhibition of forskolin-stimulated cAMP formation pretreated at 1 uM for 1 hr measured after 5 hrs washout peroid; format: functional, cell-based

Sequence of Sphingosine 1-phosphate receptor 1 (Homo sapiens) (P21453 whole entry): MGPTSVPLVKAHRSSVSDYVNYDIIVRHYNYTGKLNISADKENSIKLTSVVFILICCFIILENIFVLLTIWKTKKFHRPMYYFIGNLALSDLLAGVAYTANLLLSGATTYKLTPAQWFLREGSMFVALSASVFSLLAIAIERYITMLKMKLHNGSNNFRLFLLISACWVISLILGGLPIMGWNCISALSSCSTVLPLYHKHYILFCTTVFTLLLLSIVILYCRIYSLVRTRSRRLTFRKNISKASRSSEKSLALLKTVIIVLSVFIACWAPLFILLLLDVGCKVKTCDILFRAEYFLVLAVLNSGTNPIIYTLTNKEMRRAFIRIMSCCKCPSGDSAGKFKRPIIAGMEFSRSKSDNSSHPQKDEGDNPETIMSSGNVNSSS

CCCCCCCCCCCCC/C=C/[C@@H](O)[C@@H](N)COP(=O)(O)O
active: inhibition [1] | Activity [2] | Activity [3] | inhibition [4] | inhibition [5]

— ChEMBL document CHEMBL1212718, “Persistent signaling induced by FTY720-phosphate is mediated by internalized S1P1 receptors” (Nat Chem Biol, 2009)
